The source made the active and inactive calls.
Key:
[1] = target: T1, Mannose-6-phosphate isomerase (Homo sapiens, UniProt P34949); assay: human PMI inhibitors, high substrate, primary screen, biochemical, fluorescence intensity, high mannose 6-phosphate (AID 1220)
T1 sequence (P34949 whole entry): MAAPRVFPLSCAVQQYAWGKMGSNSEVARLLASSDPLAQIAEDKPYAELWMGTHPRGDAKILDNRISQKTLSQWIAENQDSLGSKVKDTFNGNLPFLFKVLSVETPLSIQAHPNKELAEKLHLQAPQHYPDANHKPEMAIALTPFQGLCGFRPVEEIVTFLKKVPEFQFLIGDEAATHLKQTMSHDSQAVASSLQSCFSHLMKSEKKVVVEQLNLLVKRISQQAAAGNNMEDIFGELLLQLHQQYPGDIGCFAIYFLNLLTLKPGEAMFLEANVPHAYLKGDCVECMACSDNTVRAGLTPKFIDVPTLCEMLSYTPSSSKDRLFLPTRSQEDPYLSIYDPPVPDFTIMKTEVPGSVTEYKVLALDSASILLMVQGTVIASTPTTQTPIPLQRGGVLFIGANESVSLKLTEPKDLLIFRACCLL

[2] = THP-1 cell cytotoxicity, dose response, cytotoxicity control for non-replicating M. tuberculosis project (AID 489025); type: functional
cells = type: functional
Kallikrein-7 = Kallikrein-7 (Homo sapiens, UniProt P49862); assay: Fluorescence Intensity-based biochemical primary high throughput dose response assay to identify activators of kallikrein-7 (K7) zymogen.
[3] = target: T2, Heat shock factor protein 1 (Mus musculus, UniProt P38532); assay: inhibition of MG132-induced HSE-luciferase signal, confirmation, cell-based, NIH3T3, luminescence, dose retest (AID 2382); type: functional;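 further: NIH3T3 fibroblasts with HSF1-driven luciferase reporter stressed by proteasome inhibitor MG132; luminescence from HSF1-driven luciferase expression after 8 hours of MG132 stress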
T2 sequence (P38532 whole entry): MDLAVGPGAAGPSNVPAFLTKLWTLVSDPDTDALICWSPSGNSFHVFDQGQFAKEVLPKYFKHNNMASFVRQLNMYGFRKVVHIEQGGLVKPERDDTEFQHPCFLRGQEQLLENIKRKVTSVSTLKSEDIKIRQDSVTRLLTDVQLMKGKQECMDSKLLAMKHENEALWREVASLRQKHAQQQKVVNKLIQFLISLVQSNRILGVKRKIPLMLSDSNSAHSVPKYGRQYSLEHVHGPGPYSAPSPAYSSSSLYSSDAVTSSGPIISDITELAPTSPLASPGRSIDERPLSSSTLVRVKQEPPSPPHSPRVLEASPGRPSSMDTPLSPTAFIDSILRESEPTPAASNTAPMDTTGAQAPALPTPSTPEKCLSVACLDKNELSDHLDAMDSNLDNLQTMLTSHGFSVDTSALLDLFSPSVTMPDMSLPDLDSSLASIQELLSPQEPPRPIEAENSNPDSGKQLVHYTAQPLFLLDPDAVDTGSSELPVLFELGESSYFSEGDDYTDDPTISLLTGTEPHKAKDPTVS

INS1 = assay: beta cell apoptosis inhibitors, cytokine rescue, dose response, luminescence, retest (AID 449756); type: functional, cell-based; details: Rattus norvegicus;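 further: cell death triggered by IL-1 beta plus TNF-alpha plus IFN-gamma mixture; protective hits raise ATP signal compared with cytokine alone wells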
[4] = target: Induced myeloid leukemia cell differentiation protein Mcl-1 (Homo sapiens, UniProt Q07820); type: functional
BJ [5] = assay: cytotoxicity toward BJ-TERT fibroblasts, dose response, cell-based, RAS-independent, luminescence (AID 1933); type: functional; details: Homo sapiens
BJ [6] = assay: cells; type: functional, cell-based; details: Homo sapiens
BJ [7] = assay: cytotoxicity toward BJ-TERT-LT-ST fibroblasts, dose response, cell-based, RAS-independent, luminescence (AID 1935); type: functional; details: Homo sapiens;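 further: BJ fibroblasts immortalized with TERT plus LT and ST oncogenes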
[8] = cytotoxicity toward DRD oncogenic fibroblasts, dose response, cell-based, non-viral oncogenic, luminescence (AID 1934); type: functional; details: Homo sapiens
Genome polyprotein = Genome polyprotein (dengue virus type 2, UniProt P29990); assay: Dengue-2 NS5 methyltransferase inhibitors, primary screen, biochemical, confirmation dose response (AID 588689); type: functional
Caspase-3 = target: T3, Caspase-3 (Homo sapiens, UniProt P42574); type: functional;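 further: Dose-response selectivity test against caspase-3 for candidate inhibitors of sentrin-specific proteases (SENPs)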
T3 sequence (P42574 whole entry): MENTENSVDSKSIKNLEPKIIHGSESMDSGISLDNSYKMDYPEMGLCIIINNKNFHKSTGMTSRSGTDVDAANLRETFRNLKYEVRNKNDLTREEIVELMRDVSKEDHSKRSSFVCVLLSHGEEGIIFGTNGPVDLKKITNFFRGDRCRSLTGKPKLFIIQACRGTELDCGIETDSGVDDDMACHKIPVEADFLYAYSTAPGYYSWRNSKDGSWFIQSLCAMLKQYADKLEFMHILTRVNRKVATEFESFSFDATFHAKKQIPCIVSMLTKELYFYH

[9] = target: T4, Sentrin-specific protease 7 (Homo sapiens, UniProt Q9BQF6); type: functional;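 further: Luminescence-based dose-response confirmation of ultra-high-throughput screening hits, measuring inhibition of SENP7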
T4 sequence (Q9BQF6 whole entry): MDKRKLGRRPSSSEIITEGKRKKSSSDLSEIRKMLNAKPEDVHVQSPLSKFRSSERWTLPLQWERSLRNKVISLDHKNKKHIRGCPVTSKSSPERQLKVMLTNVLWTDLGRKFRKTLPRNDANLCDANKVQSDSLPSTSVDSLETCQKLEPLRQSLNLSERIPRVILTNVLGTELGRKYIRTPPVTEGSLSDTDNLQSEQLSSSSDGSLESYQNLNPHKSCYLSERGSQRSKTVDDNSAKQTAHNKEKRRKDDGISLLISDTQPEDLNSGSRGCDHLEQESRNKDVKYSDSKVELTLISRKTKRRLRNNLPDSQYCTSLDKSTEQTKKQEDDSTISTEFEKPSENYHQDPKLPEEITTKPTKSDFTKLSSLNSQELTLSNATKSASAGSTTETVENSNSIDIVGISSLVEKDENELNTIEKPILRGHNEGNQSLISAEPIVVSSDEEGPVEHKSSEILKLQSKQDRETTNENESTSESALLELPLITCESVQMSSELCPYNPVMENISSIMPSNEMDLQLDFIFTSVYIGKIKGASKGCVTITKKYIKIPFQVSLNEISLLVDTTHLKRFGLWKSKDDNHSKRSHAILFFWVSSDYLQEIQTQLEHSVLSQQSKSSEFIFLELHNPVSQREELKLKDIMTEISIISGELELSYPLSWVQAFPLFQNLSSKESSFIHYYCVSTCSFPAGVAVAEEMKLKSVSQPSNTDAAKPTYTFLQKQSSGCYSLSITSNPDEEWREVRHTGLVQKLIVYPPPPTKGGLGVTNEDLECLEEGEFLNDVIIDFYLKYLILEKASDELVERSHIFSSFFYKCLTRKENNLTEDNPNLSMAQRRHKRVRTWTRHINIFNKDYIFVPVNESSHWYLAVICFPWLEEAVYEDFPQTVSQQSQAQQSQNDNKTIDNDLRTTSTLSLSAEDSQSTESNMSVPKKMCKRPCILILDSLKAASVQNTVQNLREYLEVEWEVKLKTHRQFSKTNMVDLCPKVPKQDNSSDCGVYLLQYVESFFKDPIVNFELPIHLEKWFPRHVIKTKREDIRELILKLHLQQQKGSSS

[10] = target: T5, Sentrin-specific protease 6 (Homo sapiens, UniProt Q9GZR1); type: functional;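 further: Luminescence-based dose-response confirmatory assay of SENP6 inhibition, following up an ultra-high-throughput screen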
T5 sequence (Q9GZR1 whole entry): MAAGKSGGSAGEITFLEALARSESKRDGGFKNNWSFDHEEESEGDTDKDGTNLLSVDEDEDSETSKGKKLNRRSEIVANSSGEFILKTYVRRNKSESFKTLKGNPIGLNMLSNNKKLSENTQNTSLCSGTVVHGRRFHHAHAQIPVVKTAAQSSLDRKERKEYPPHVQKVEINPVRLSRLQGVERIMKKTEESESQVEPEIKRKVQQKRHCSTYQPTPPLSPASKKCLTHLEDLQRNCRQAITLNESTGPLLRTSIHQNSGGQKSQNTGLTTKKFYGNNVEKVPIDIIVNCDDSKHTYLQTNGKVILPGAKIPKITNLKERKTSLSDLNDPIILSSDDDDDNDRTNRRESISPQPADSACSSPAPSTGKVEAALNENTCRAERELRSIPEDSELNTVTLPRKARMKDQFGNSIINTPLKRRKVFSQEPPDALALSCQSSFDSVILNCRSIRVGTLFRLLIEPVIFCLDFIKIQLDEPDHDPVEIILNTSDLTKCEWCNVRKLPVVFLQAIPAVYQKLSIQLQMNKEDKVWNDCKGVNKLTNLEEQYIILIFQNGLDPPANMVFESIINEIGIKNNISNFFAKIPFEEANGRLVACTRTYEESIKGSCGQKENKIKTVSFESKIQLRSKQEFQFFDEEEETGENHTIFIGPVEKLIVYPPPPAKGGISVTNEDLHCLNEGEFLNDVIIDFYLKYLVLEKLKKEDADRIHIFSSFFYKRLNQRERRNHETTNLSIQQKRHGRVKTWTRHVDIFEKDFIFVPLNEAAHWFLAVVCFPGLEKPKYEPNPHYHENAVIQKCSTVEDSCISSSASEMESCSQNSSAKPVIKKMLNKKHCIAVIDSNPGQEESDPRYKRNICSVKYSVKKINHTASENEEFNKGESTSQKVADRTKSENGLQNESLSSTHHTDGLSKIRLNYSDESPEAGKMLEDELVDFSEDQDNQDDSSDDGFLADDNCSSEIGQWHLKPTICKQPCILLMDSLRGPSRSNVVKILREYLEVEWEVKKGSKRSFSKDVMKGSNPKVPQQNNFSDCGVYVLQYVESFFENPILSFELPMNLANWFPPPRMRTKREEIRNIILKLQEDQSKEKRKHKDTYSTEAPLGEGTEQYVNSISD

[11] = target: T6, Sentrin-specific protease 8 (Homo sapiens, UniProt Q96LD8); type: functional;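 further: luminescence read-out of SENP8 inhibition, dose-response confirmation following an ultra-high-throughput screen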
T6 sequence (Q96LD8 whole entry): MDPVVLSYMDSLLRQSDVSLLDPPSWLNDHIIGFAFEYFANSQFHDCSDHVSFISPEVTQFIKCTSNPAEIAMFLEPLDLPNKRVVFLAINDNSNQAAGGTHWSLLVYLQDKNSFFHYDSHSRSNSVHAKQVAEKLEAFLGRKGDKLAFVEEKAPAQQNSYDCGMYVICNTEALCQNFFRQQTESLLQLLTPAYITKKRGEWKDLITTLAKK

[12] = HepG2 cell cytotoxicity, dose response, cytotoxicity control, plate reader, cherry-pick, antagonist series (AID 743416); type: functional, cell-based
[13] = LGR2 antagonists, dose response, cell-based, HEK293, CRE-luciferase reporter, cherry pick, set 2 (AID 743343); type: functional;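 further: transfected cells were stimulated with diluted bursicon conditioned medium after compound addition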
[14] = MC4R antagonists, dose response, counter-screen for LGR2 antagonist project, cell-based, plate reader, cherry pick (AID 743444); type: functional;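 further: transfected HEK 293 cells stimulated with alpha-MSH peptide; potency of inhibitors of the alpha-MSH evoked signal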
[15] = A549 cell cytotoxicity, dose response, cytotoxicity control, plate reader, cherry-pick, antagonist series (AID 743412); type: functional, cell-based
[16] = target: Luciferin 4-monooxygenase (Photinus pyralis, UniProt P08659); assay: firefly luciferase enzyme inhibitors, dose response, biochemical, luminescence (AID 1891)
[17] = Luminescence Cell-Based Dose Confirmation HTS to Identify Inhibitors of Platelet Dense Granule Release. [Related pubchem assays: 1663 (Primary HTS), 1678 (Summary of Project)]; type: functional
[18] = inhibitors of intracellular T. cruzi replication, confirmation, NIH3T3 host cells, beta-gal luminescence (AID 2044); type: functional, cell-based;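 further: intracellular parasites grown in NIH/3T3 mouse fibroblasts as host cells; luminescent beta-galactosidase reporter signal from transgenic T. cruzi replicating inside host cells; inhibitors lower the luminescence signal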
[19] = cytotoxicity toward NIH3T3 fibroblasts, dose response, counter-screen, cell-based, ATP luminescence, mouse fibroblasts (AID 2010); type: functional;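 further: cells exposed to compound for about 90 hours before reading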

Kallikrein-7, sequence (P49862 whole entry): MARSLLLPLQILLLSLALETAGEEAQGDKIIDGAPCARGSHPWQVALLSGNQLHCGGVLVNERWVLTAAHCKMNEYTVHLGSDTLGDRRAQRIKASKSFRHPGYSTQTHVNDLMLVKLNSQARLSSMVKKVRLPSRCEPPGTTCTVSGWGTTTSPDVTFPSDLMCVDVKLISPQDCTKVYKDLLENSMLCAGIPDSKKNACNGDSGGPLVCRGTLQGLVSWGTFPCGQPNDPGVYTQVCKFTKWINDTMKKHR
Induced myeloid leukemia cell differentiation protein Mcl-1, sequence (Q07820 whole entry): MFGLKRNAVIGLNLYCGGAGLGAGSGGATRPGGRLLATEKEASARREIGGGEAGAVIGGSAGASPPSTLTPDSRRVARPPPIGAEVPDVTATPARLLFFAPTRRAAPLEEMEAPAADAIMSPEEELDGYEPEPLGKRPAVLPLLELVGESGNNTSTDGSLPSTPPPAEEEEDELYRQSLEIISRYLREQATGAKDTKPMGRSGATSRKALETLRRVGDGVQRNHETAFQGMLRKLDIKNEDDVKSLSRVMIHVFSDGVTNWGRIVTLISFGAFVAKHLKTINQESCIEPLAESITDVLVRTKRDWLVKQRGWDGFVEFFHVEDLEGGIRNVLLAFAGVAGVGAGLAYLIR
Genome polyprotein, sequence (P29990 2492-3391 limits assumed): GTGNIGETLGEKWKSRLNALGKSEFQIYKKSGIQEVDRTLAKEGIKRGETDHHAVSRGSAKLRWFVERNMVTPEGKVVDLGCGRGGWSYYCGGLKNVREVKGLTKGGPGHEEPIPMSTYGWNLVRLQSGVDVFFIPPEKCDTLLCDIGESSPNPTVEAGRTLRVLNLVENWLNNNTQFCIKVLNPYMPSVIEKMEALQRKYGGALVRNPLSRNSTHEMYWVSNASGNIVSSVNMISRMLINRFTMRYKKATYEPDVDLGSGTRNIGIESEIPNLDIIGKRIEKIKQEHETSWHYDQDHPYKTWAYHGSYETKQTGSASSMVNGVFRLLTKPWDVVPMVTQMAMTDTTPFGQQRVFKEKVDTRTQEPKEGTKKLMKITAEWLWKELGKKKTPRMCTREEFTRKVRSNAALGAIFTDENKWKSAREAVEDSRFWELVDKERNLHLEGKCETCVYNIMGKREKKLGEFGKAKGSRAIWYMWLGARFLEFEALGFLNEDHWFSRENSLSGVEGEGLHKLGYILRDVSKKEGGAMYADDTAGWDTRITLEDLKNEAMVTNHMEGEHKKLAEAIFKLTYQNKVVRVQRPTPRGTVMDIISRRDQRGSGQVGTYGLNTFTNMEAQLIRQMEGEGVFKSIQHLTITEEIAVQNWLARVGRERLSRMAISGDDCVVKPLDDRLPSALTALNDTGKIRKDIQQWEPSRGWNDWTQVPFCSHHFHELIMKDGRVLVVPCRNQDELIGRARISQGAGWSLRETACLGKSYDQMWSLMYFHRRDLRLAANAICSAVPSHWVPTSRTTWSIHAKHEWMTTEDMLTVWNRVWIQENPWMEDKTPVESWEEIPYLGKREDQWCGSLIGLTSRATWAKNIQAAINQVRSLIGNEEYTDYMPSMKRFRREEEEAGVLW
Luciferin 4-monooxygenase, sequence (P08659 whole entry): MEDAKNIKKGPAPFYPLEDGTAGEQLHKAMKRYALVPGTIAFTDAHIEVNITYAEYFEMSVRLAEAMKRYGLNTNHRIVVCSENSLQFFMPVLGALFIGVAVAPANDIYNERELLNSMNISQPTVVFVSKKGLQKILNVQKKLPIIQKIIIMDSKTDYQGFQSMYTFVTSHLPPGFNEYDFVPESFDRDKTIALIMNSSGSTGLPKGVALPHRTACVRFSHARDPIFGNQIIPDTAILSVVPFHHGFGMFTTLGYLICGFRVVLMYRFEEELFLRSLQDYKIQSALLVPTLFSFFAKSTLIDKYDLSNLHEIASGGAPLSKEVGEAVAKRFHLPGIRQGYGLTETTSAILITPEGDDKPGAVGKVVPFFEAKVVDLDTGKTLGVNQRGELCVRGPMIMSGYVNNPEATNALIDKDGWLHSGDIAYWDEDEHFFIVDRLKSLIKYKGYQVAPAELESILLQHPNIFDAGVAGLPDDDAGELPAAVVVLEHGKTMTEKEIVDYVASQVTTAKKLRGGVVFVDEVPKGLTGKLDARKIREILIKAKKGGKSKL

SMILES: CCc1cc(N2CCOCC2)cc2c1[nH]c1ccccc12
- IC50 [1]: > 50 µM (not active)

SMILES: COC(=O)COc1cccc(NC(=O)COc2ccccc2)c1
- CC50 [2]: > 40 µM (active)
- IC50 (cells): 1.65 µM (active)

SMILES: O=C(Nc1ccc2c(c1)C(=O)NC2=O)c1ccc(S(=O)(=O)N2CCCC2)cc1
- EC50 (Kallikrein-7): 8.55 µM (active)

SMILES: O=C(c1ccc([N+](=O)[O-])s1)N1CCN(c2cccc(Cl)c2)CC1
- EC50 [3]: > 195 µM (not active)
- CC50 [2]: 35.6 µM (active)
- IC50 (cells): 1.11 µM (active)
- AC50 (INS1): 7.83 µM (active)

SMILES: COCCN(CCOC)c1cc(C)c(C#N)c2nc3ccccc3n12
- EC50 (Kallikrein-7): 11.2 µM (inactive)

SMILES: CCc1cccc(OCCCn2ccnc2)c1
- CC50 [2]: > 40 µM (active)

SMILES: Cc1cccc(-n2c(SCC(=O)N3CCCC3)nc3nnc(C)c-3c2N)c1
- EC50 (Kallikrein-7): 13.3 µM (inactive)

SMILES: O=C(NC1CCCCCC1)c1cc2c(=O)n3ccccc3nc2s1
- EC50 (Kallikrein-7): > 69.5 µM (inactive)

SMILES: O=C(Nc1ccc2nc3ccccc3nc2c1)c1ccccc1
- IC50 [4]: > 54 µM (active)
- EC50 (Kallikrein-7): > 69.5 µM (inactive)

SMILES: CN1C(=O)NC(=O)/C(=C/c2ccc([N+](=O)[O-])s2)C1=O
- EC50 (BJ [5]): 11.2 µM (active)
- EC50 (BJ [6]): > 150 µM (not active)
- EC50 (BJ [7]): > 150 µM (not active)
- EC50 [8]: > 150 µM (not active)
- CC50 [2]: 33.8 µM (active)
- IC50 (cells): 23.2 µM (active)
- IC50 (Genome polyprotein): 17.4 µM (active)

SMILES: COCCn1c(C)cc(C(=O)CSc2nc3ccccc3s2)c1C
- IC50 (Caspase-3): 26.4 µM (active)
- IC50 [9]: 8.92 µM (active)
- IC50 [10]: 27.4 µM (active)
- IC50 [11]: 83.7 µM (active)
- AC50 [12]: 41.8 µM (active)
- AC50 [13]: 3.81 µM (active)
- AC50 [14]: 6.46 µM (active)

SMILES: COC(=O)C1=CNC=C(C(=O)OC)C1c1ccc(C(=O)OC)cc1
- EC50 (Kallikrein-7): > 69.5 µM (inactive)

SMILES: CC(=O)c1ccc(Nc2nc(-c3sc(C)nc3C)cs2)cc1
- AC50 [15]: 2.08 µM (active)
- AC50 [12]: 2.87 µM (active)
- AC50 [13]: 21.8 µM (active)
- AC50 [14]: 34 µM (active)

SMILES: CCCCN1C(=O)/C(=N\c2cccc3cnccc23)c2ccccc21
- EC50 [16]: > 112 µM (not active)
- EC50 [17]: > 112 µM (not active)
- IC50 [1]: > 50 µM (not active)

SMILES: CCC/C(=N\NC(=O)c1ccco1)c1ccc(Cl)s1
- CC50 [2]: > 40 µM (active)
- IC50 (cells): 13.9 µM (active)

SMILES: O=C(O)c1ccc(/C=N/NC(=O)c2cc(-c3cccs3)nc3ccccc23)cc1
- EC50 (Kallikrein-7): 49.6 µM (inactive)

SMILES: CC(C)(C)C1=CC(=O)C(=O)C(C(C)(C)C)=C1
- EC50 [18]: 0.62 µM (active)
- EC50 [19]: 7.34 µM (active)
- IC50 [1]: 9.84 µM (active)

SMILES: O=C(Nc1nc2ccccc2[nH]1)c1ccc(Cl)cc1
- AC50 [15]: 29.1 µM (active)
- AC50 [12]: 29.5 µM (active)
- AC50 [13]: 10.1 µM (active)
- AC50 [14]: 6.33 µM (active)

Reference: ChEMBL document CHEMBL1201862, “PubChem BioAssay data set” (2004)
